This note sets out measurements from ChEMBL document CHEMBL3351615, “Design, synthesis and evaluation of novel HDAC inhibitors as potential antitumor agents” (Bioorg Med Chem Lett, 2014).

Series [1] addresses Histone deacetylase 1 (Homo sapiens, UniProt Q13547). In words: Inhibition of HDAC1 (unknown origin) using Boc-Lys(Ac)-AMC as substrate by fluorescence assay.
Series [2] can be described thus: cells. Format: functional. The following applies: Homo sapiens, HCT-116, 72 h.
Description: Growth inhibition of human HCT116 cells after 72 hrs by CellTiter Glo assay
The nature of series [3]: cells. In kind it is functional. Particulars: Homo sapiens, PC-3, 72 h.
Description: Growth inhibition of human PC3 cells after 72 hrs by CellTiter Glo assay
A short description of series [4]: cells. Particulars: Homo sapiens, HL-60, 72 h. Format: functional.
Description: Growth inhibition of human HL60 cells after 72 hrs by CellTiter Glo assay
Series [5] in a line: Antitumor activity against human HCT116 cells xenografted in mouse assessed as tumor growth reduction at 200 mg/kg, po qd measured after 10 days relative to vehicle-treated control. In kind it is functional. Particulars: HCT-116, 240 h, read-out: TGI.
A short description of series [6]: Antitumor activity against human HCT116 cells xenografted in mouse assessed as tumor growth reduction at 50 mg/kg, po qd for 3 weeks relative to vehicle-treated control. Format: functional. The following applies: HCT-116, 504 h, read-out: TGI.
Series [7] relates to Mus musculus. In words: Toxicity in human HCT116 cells xenografted mouse assessed as body weight loss at 50 mg/kg, po qd for 3 weeks relative to vehicle-treated control. In kind it is organism-based, HCT-116. More on the design: dose 50 mg/kg, route oral. The following applies: in vivo, 504 h.
Series [8] has as its system Mus musculus. Kind of series: Toxicity in human HCT116 cells xenografted mouse assessed as body weight loss at 50 mg/kg, po qd as intermittent dosing schedule with 3 days on plus 3 days off for 3 weeks relative to vehicle-treated control. In kind it is organism-based, HCT-116. More on the design: dose 50 mg/kg, route oral. The following applies: in vivo.
Series [9] deals with HCT-116. In words: Ratio of vorinostat IC50 to compound IC50 for human HCT116 cells after 72 hrs by CellTiter Glo assay. Format: functional.
Series [10] is described as follows: Antitumor activity against human HCT116 cells xenografted in mouse assessed as tumor growth reduction at 75 mg/kg, po qd as intermittent dosing schedule with 3 days on plus 3 days off for 3 weeks relative to vehicle-treated control. In kind it is functional. The following applies: HCT-116, read-out: TGI.
The test system of series [11] is Mus musculus. Kind of series: Toxicity in human HCT116 cells xenografted mouse at 200 mg/kg, po qd measured after 10 days relative to vehicle-treated control. The following applies: in vivo, 240 h. More on the design: dose 200 mg/kg, route oral. Format: organism-based, HCT-116.
The target of series [12] is hERG (KCNH2) (Homo sapiens, UniProt Q12809). In words: Inhibition of human ERG at 10 uM.
hERG (KCNH2), sequence (Q12809 whole entry): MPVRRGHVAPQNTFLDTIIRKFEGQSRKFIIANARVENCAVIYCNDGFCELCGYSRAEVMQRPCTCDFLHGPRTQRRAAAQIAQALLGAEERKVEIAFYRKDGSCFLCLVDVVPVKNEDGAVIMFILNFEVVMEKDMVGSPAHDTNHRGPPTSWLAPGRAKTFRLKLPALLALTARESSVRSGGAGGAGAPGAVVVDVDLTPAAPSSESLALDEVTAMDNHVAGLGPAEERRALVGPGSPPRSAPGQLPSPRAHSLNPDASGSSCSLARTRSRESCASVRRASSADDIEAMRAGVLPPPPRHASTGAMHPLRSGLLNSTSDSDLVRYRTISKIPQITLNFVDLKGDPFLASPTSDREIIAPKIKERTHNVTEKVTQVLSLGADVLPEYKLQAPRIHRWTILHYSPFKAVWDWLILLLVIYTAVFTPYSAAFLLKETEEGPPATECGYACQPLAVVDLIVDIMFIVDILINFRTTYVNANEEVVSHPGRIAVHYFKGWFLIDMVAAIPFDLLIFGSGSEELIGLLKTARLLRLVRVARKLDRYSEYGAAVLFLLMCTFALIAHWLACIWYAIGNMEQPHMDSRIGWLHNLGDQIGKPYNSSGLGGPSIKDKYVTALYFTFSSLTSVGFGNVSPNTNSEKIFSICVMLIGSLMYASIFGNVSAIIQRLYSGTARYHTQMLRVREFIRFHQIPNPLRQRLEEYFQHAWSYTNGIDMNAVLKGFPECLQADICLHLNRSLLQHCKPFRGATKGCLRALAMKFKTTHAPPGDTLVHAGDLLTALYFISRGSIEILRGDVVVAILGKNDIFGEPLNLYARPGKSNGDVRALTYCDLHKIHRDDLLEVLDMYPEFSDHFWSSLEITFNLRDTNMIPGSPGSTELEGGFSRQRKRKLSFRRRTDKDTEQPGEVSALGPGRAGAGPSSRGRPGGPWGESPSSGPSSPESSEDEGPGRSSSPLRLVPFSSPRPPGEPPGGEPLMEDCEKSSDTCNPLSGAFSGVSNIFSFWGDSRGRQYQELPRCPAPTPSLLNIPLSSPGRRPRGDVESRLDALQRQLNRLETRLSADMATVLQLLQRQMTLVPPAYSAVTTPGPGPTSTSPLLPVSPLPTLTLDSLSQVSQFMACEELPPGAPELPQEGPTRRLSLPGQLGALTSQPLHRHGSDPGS

Histone deacetylase 1, sequence (Q13547 whole entry): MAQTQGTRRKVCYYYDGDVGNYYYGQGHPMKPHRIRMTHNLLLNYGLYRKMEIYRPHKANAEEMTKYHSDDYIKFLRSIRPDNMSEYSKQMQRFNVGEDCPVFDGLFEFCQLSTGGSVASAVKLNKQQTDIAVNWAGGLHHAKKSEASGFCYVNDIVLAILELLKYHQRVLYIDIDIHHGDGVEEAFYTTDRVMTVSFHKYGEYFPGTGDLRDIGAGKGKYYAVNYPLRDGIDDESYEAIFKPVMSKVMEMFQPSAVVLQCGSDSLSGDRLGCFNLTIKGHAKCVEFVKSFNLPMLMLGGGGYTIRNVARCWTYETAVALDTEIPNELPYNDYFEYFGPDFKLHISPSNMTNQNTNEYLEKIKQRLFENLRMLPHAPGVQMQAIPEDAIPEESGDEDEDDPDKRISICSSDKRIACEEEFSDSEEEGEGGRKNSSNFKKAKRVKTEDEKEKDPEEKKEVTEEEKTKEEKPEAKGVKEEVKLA

As to `O=C(NO)c1ccc(N2CCN(c3cccnc3)C2=O)cc1`, it took 182 nM to reach half-maximal inhibition in [1] (IC50).

On to `O=C(NO)c1ccc(N2CCN(c3cnc4ccccc4c3)C2=O)cc1`, for which, in [1], the IC50 is 152 nM.

`O=C(NO)c1ccc(N2CCN(Cc3ccccc3)C2=O)cc1` registered an IC50 in [1] of 17 nM. The compound further gave a GI50 in series [2] of 850 nM.

For `O=C(NO)c1ccc(N2CCN(Cc3ccc(F)cc3)C2=O)cc1`, the IC50 in series [1] worked out at 21 nM.

As to `COc1ccc(CN2CCN(c3ccc(C(=O)NO)cc3)C2=O)cc1`, in [1], the IC50 was found to be 12 nM. The compound further showed a GI50 in series [2] of 470 nM.

On to `O=C(NO)c1ccc(N2CCN(Cc3ccc(C(F)(F)F)cc3)C2=O)cc1`, for which the IC50 in series [1] is 80 nM.

For the compound `O=C(NO)c1ccc(N2CCN(Cc3ccncc3)C2=O)cc1`, inhibition in series [1] was half-maximal at 41 nM (IC50).

In series [1], `O=C(NO)c1ccc(N2CCN(Cc3cccnc3)C2=O)cc1` yielded an IC50 of 42 nM.

As for `CN(C)c1cccc(CN2CCN(c3ccc(C(=O)NO)cc3)C2=O)c1`, the GI50 in series [3] came out at 430 nM; in [4] it was 440 nM; in series [2], 330 nM. Also, in series [1], the IC50 was 9.5 nM.

In the case of `CN(C)Cc1cccc(CN2CCN(c3ccc(C(=O)NO)cc3)C2=O)c1`, in [1], half-maximal inhibition (IC50) required 23 nM.

For `CN(C)Cc1ccc(CN2CCN(c3ccc(C(=O)NO)cc3)C2=O)cc1`, the IC50 in series [1] came out at 25 nM.

As for `O=C(NO)c1ccc(N2CCN(Cc3cccc4ccccc34)C2=O)cc1`, 9.5 nM corresponded to half-maximal inhibition in [1] (IC50).

Turning to `O=C(NO)c1ccc(N2CCN(Cc3ccc4ccccc4c3)C2=O)cc1`, the GI50 in series [3] was determined as 380 nM; in series [4] it was 360 nM; in series [2], 210 nM. Also, in [1], the IC50 is 5.4 nM.

`O=C(NO)c1ccc(N2CCN(Cc3cccc4ncccc34)C2=O)cc1`: the GI50 in [3] worked out at 340 nM; in [4] it was 250 nM; in [2], 270 nM. Moreover, the 50% inhibitory concentration (IC50) in series [1] stood at 5.4 nM.

As to `CCN(CC)Cc1ccc2cc(CN3CCN(c4ccc(C(=O)NO)cc4)C3=O)ccc2c1`, the inhibition in vivo at 200 mg/kg in series [5] was found to be 50%. Besides, the GI50 came out at 100 nM in series [3], 86 nM in [4] and 110 nM in series [2]. Further, the inhibition in vivo at 50 mg/kg in series [6] is 45%. Besides, the Activity in series [7] was less than 15%; in series [8], less than 15%; in [11], “Toxic”. This compound registered an IC50 in series [1] of 2.7 nM. Moreover, the “Ratio IC50” value in series [9] is 6. For the same compound, in series [10], the inhibition in vivo at 75 mg/kg turned out to be 54%. In series [12], this compound came in with an inhibition at 10 µM of 27%.

With `O=C(NO)c1ccc(N2CCN(CCc3ccccc3)C2=O)cc1`, the IC50 in series [1] came out at 13 nM. Further, in series [2], halving of growth (GI50) required 650 nM.

Consider `Cn1cc(CCN2CCN(c3ccc(C(=O)NO)cc3)C2=O)c2ccccc21`, for which the results for the GI50 in series [3], in series [4] and in series [2] were 210 nM, 480 nM and 240 nM, respectively. Besides, 4 nM corresponded to half-maximal inhibition in [1] (IC50).

`CC(C)CN1CCN(c2ccc(C(=O)NO)cc2)C1=O`: in series [1], the IC50 is 250 nM.

The compound `O=C(NO)c1ccc(N2CCN(CCCN3CCOCC3)C2=O)cc1` yielded an IC50 in series [1] of 125 nM.

Take `O=C(NO)c1ccc(N2CCN(CCCN3CCCC3)C2=O)cc1`: the midpoint of inhibition in series [1], the IC50, lay at 114 nM.
